System: slow reacting substance of anaphylaxis (SRS-A)
Assay: Inhibition of SRS-A induced contraction of guinea pig ileum
Conditions: compound concentration 5×10^-6 M, partially purified SRS-A from guinea pig lung, agonist 40 μg/ml, 15 min, 5 µM
Protocol: The SRS-A antagonist activity of the compounds of this invention is measured by the ability of the active medicament to inhibit SRS-A induced contraction of guinea pig ileum. In this test system, sections of ileum are resected from guinea pigs and placed in 5 ml. tissue baths containing a modified Tyrode's solution. One end of the tissue is fixed to a glass tissue holder, the other is connected to a force-displacement transducer and the tissue is placed under a tension of 500 mg. Isometric tissue contractions are recorded on a six channel polygraph. Baths are constantly aerated with 95% O2 -5% CO2. After a 20 minute stabilization period a concentration of the appropriate agonist which provides a contraction height of 60-80% of the maximum obtainable to that agonist (as determined) from full sequential concentration--response curves in separate experiments) is added to the tissue bath and the response recorded. The procedure is repeated until reproducible responses are obtained. […] Percent inhibition produced by the test compound is calculated by substracting the mean percentage change in control tissue from the mean percentage change in tissues exposed to the test compound. Additional compounds are then evaluated as long as the tissue remains reproducibly responsive to the agonist. […]

O=S(=O)(Nc1ccc2c(c1)CN(S(=O)(=O)NS(=O)(=O)N1CCc3ccc(NS(=O)(=O)c4ccc(Cl)cc4)cc3C1)CC2)c1ccc(Cl)cc1 [Compound 1, N,N'-bis[7-(4-chlorophenylsulfonamide)-1,2,3,4-tetrahydroisoquinolyl]disulfonylimide]
percent antagonism of SRS-A induced contraction: 59%
